Results on five compounds are retold here after PMC9373486, “Exploring in vitro anti-proliferative and anti-inflammatory activities of Prasachandaeng remedy, and its bioactive compounds” (BMC Complementary Medicine and Therapies, 2022).

The test system of one data set is TNF-α production. Put plainly: Inhibition of LPS-induced TNF-α production in RAW 264.7 (ELISA). It counts as cell-based, murine. The following applies: Mus musculus, RAW264.7, LPS-induced RAW 264.7, n = 3. The procedure:
The tumor necrosis factor-alpha (TNF-α) is the principal mediator of inflammation in response to gram-negative bacteria. It is mainly produced by LPS-activated mononuclear phagocytes. The TNF- α ELISA can quantify TNF-α in the supernatant of cell culture medium. The assay was carried out using the TNF-alpha ELISA kit (Thermo Fisher® scientific, USA). The murine macrophage cell line (RAW 264.7) was cultured in DMEM medium containing 10% heat-inactivated FBS, 10^4 µg/mL P/S. Firstly, the viable cells were counted using trypan blue exclusion in a haemocytometer. The single cell suspension of murine macrophage cell line was diluted with the medium to provide an optimal density of 10^5. The cell suspension was seeded, in a 100 µL/well, in 96-well plates and incubated at 37 °C with 5% CO2 atmosphere at 95% humidity for 24 h. […] Then, the test sample was added and incubated for 24 h. The control included 2% DMSO solution mixed with the medium, in place of the test samples in the analyses. This protocol was followed according to TNF-α ELISA kit (Thermo Fisher® scientific, USA). […] The concentrations of TNF- α in the wells were measured with a microplate reader at 450 nm. The % inhibition of TNF-α production was calculated using the equation below, and the IC50 values were calculated using the Prism program. […]
(In general: An ELISA detects its analyte on a solid surface through an enzyme-linked reagent.)

Data set [1] can be described thus: %cytotoxicity reported with the TNF-α assay. The data set is classed as cell-based, murine. The following applies: mouse, RAW 264.7 cells, n = 3, read-out: [%cytotoxicity] at conc. 100 µg/mL (converted). The procedure:
Table 7 Anti-inflammatory on LPS-induced tumor necrosis factor-alpha production of D.cochinchinensis and PSD remedy | column: Inhibition of TNF-α production / %Inhibition and [%cytotoxicity] at conc. 100 µg/mL

The subject of data set [2] is human keratinocyte cell line (HaCaT). Put plainly: Cytotoxic activity, antiproliferative SRB assay, non-cancerous HaCaT. The data set is classed as cell-based. The conditions noted are these: mean ± SEM, n = 3. The procedure:
(§1) Hepatocellular carcinoma (HepG2; ATTC No. HB-8065) was cultured in Minimum Essential Media (MEM) supplemented with 10% heated-inactivated fetal bovine serum (FBS) and 1% penicillin–streptomycin (P/S). Cholangiocarcinoma cell line (KKU-M156) was cultured in HAM's F12 supplemented with 10% FBS, 1% P/S, and 12.5 mM HEPES. In addition, one non-cancerous human keratinocyte cell line (HaCaT; No. 300493-SF) was cultured in Dulbecco's Modified Eagle Medium (DMEM) supplemented with 10% FBS and 1% P/S [13].
(§2) This assay followed the previously described protocol. The various concentrations (1, 10, 50, and 100 µg/mL) of the crude extracts were investigated against two human cancer cell lines and one non-cancerous cell line. The cell lines were washed with PBS and the cells were detached with 0.025% trypsin–EDTA to make a single cell suspension. A 5 mL medium was then added to the flask to stop the trypsin–EDTA activity. The viable cells were counted by trypan blue exclusion in a haemocytometer. A single-cell suspensions density of HepG2, KKU-M156, and HaCaT were diluted with each medium to give optimal densities of 2 × 10^3, 3 × 10^3, and 8 × 10^3 cells/well, respectively. The 100 µL/well of these cell suspensions were seeded in 96-well plates and incubated at 37 °C with 5% CO2 at 95% humidity for 24 h. Then, 100 µL of a sample solution was added to each well. The control was the medium mixed with 2% DMSO. The 96-well plates were incubated at 37 °C with 5% CO2 at 95% humidity for 72 h. The mixture in the well was removed and washed with 200 µL fresh medium. The 96-well plate was further incubated for 72 h, then the cell in 96-well plates was fixed with 40%TCA and washed with water five times. Finally, the fixed cell in the 96-well plate was strained with Sulforhodamine B sodium salt and the percentage of inhibition of cell growth was measured colorimetrically using the SRB assay. The herbal extract and pure compounds were considered to have potent cytotoxicity if the IC50 values were ≤ 20 and ≤ 4 µg/mL, respectively. The % inhibition of cell growth was calculated by the equation shown below, and the IC50 values were calculated using the Prism program.
(§3) %Inhibitionofcellgrowth=MeanofODcontrol-MeanofODsample÷[…]×100 where: OD control = OD of medium with 2% of DMSO and OD sample = OD of crude extract.
Background: Sulforhodamine B stains cellular protein and so reports cell mass.

Data set [3] concerns cholangiocarcinoma cell line (KKU-M156). Put plainly: Cytotoxic activity, antiproliferative SRB assay, KKU-M156. The following applies: for IC50: Homo sapiens, KKU-M156, mean ± SEM, n = 3; for IC50 / Cytotoxicity against KKU-M156 (in words): SRB assay; for Selective index (SI), KKU-M156: IC50 of non-cancerous cells (HaCaT) / IC50 of KKU-M156. The data set is classed as cell-based, human. The procedure:
as §1, §2, §3
(§4) SelectivityindexSI=IC50ofnon-cancerouscellline÷IC50ofcancercellline

Data set [4] relates to hepatocarcinoma cell line (HepG2). Put plainly: Cytotoxic activity, antiproliferative SRB assay, HepG2. It counts as cell-based, human. The conditions noted are these: for IC50: Homo sapiens, HepG2, mean ± SEM, n = 3; for IC50 / Cytotoxicity against HepG2 (in words): SRB assay; for Selective index (SI), HepG2: IC50 of non-cancerous cells (HaCaT) / IC50 of HepG2. The protocol:
as §1, §2, §3, §4

Structures are written as SMILES. In brackets after ≈: the same amount, converted by molar mass. Counter-ions that a name gives are not always drawn. A value given as a limit tells only on which side of the number the result lay.

Take `CC(=O)Nc1ccc(O)cc1` [Acetaminophen]: in the data set on TNF-α production (100 µg/mL, read-out: %Inhibition of TNF-α production at conc. 100 µg/mL), the inhibition at 100 µg/mL came to 18.7 ± 1.93%. Also, in the data set with TNF-α production, the IC50 (in general, the point on the concentration scale where inhibition reaches its midpoint) is > 100 µg/mL. In addition, the cytotoxicity at 100 µg/mL in data set [1] was 59.2%.
With `COc1cc(OC)c(CCC(=O)c2ccc(O)cc2)c(OC)c1` [Compound 1, 1-(4-hydroxyphenyl)-3-(2,4,6-trimethoxyphenyl)propan-1-one], the IC50 in data set [2] turned out to be 86.1 ± 2.13 µg/mL (≈ 272 µM). In data set [3], the IC50 is 21.3 ± 3.17 µg/mL (≈ 67.2 µM); the “Selective index (SI), KKU-M156” value was found to be 4.1; the “Cytotoxicity against KKU-M156 (in words)” value is “moderate cytotoxicity”. Moreover, in data set [4], the concentration for half-maximal inhibition (IC50) is 20 ± 0.46 µg/mL (≈ 63.3 µM); the “Selective index (SI), HepG2” value worked out at 4.3; the “Cytotoxicity against HepG2 (in words)” value is given as “moderate cytotoxicity”.
As for `COc1ccc(CCC(=O)c2ccc(O)cc2)c(OC)c1` [Compound 2], half-maximal inhibition in data set [2] (IC50) was put at 66 ± 0.68 µg/mL (≈ 231 µM). Besides, in data set [3], the IC50 was 33.2 ± 2.1 µg/mL (≈ 116 µM); the “Selective index (SI), KKU-M156” value is recorded as 2.0; the “Cytotoxicity against KKU-M156 (in words)” value is listed as “moderate cytotoxicity”. In addition, in data set [4], half-maximal inhibition (IC50) was put at 20.7 ± 0.49 µg/mL (≈ 72.3 µM); the “Selective index (SI), HepG2” value is listed as 3.2; the “Cytotoxicity against HepG2 (in words)” value is “moderate cytotoxicity”.
Take `COc1ccc(C[C@]2(O)COc3cc(O)cc(O)c3C2=O)cc1` [Compound 3, (3S)-3,5,7-trihydroxy-3-[(4-methoxyphenyl)methyl]-2H-chromen-4-one]: the half-maximal inhibitory concentration (IC50) in data set [2] worked out at 46.5 ± 0.88 µg/mL (≈ 147 µM). In data set [3], the midpoint of inhibition, the IC50, lay at 7.12 ± 0.56 µg/mL (≈ 22.5 µM); the “Selective index (SI), KKU-M156” value is 6.5; the “Cytotoxicity against KKU-M156 (in words)” value is recorded as “moderate cytotoxicity”. Also, in data set [4], it took 25.8 ± 1.56 µg/mL (≈ 81.4 µM) to reach half-maximal inhibition (IC50); the “Selective index (SI), HepG2” value worked out at 1.8; the “Cytotoxicity against HepG2 (in words)” value is recorded as “moderate cytotoxicity”.
With `CC[C@]1(O)C[C@H]2CN(CCc3c([nH]c4ccccc34)[C@@](C(=O)OC)(c3cc4c(cc3OC)N(C=O)[C@H]3[C@@](O)(C(=O)OC)[C@H](OC(C)=O)[C@]5(CC)C=CCN6CC[C@]43[C@@H]65)C2)C1` [Vincristine sulfate, reference compound], the IC50 in data set [2] amounted to 7e-06 µg/mL; in data set [3], 0.0026 ± 0.001 µg/mL; in data set [4] it was 0.012 ± 0.0005 µg/mL. Besides, the “Selective index (SI), HepG2” value in data set [4] is 0.00058.
